Laboratory results: ChEMBL document CHEMBL1138041, “Parallel artificial membrane permeability assay: a new membrane for the fast prediction of passive human skin permeability” (J Med Chem, 2006)

How the values were obtained:
[1] = not given; remark: listed apart in the source
[2] = not given; remark: listed apart in the source
[3] = not given; remark: listed apart in the source

SMILES | pKa (physchem) | log Kp (Homo sapiens; in vivo) | log Pe | log Pe [1] | other results
CCc1ccc(O)cc1 | 10.2 | -5.01 cm/s | -4.05 cm/s |  | 
Nc1cc([N+](=O)[O-])ccc1O [2-AMINO-4-NITROPHENOL] | 6.7 | -6.62 cm/s | -4.84 cm/s | -3.96 cm/s | 
Cc1cc(=O)n(-c2ccccc2)n1C [ANTIPYRINE] |  | -7.74 cm/s | -6.2 cm/s | -5.4 cm/s | 
CCNc1nc(Cl)nc(NC(C)C)n1 [ATRAZINE] | < 2 | -5.56 cm/s | -4.21 cm/s |  | 
O=C(OCc1ccccc1)c1cccnc1 [BENZYL NICOTINATE] | 3.94 | -5.35 cm/s | -4.26 cm/s | -4.35 cm/s | log Pe [2]: -4.18 cm/s
Oc1ccc2ccccc2c1 [BETANAPHTHOL] | 9.4 |  |  |  | log Pe ([1]; not told): -4.41 cm/s; log Kp ([3]; not told): -4.08 cm/s; log Pe ([2]; not told): -4.35 cm/s; log Kp (Homo sapiens): -5.11 cm/s; log Pe (not told): -4.19 cm/s
Cn1c(=O)c2c(ncn2C)n(C)c1=O [CAFFEINE] |  |  |  |  | log Kp (Homo sapiens): -7.56 cm/s
O=C(O)Cc1ccccc1Nc1c(Cl)cccc1Cl [DICLOFENAC] |  | -5.3 cm/s | -4.33 cm/s |  | 
CN[C@@H](C)[C@H](O)c1ccccc1 [EPHEDRINE] |  | -5.75 cm/s | -4.82 cm/s |  | 
COc1ccc2c(c1)c(CC(=O)O)c(C)n2C(=O)c1ccc(Cl)cc1 [INDOMETHACIN] |  |  | -4.2 cm/s |  | log Kp (Homo sapiens): -5.39 cm/s
c1ccc2cnccc2c1 [ISOQUINOLINE] | 5.37 | -5.33 cm/s | -4.05 cm/s |  | 
CC(C(=O)O)c1cccc(C(=O)c2ccccc2)c1 (stereo unspecified) [KETOPROFEN] |  | -4.7 cm/s |  |  | 
COC(=O)c1cccnc1 [METHYL NICOTINATE] | 3.84 | -6.04 cm/s | -4.32 cm/s |  | 
CN1CCC[C@H]1c1cccnc1 [NICOTINE] | 8.08 |  |  |  | log Pe ([1]; not told): -4.23 cm/s; log Kp ([3]; not told): -4.29 cm/s; log Pe ([2]; not told): -4.86 cm/s; log Kp (Homo sapiens): -5.26 cm/s; log Pe (not told): -4.58 cm/s
O=[N+]([O-])c1ccc(O)cc1 [P-NITROPHENOL] | 6.9 | -5.81 cm/s | -4.33 cm/s | -4.09 cm/s | log Kp [3]: -5.08 cm/s; log Pe [2]: -5.24 cm/s
Oc1ccc(Cl)cc1 [PARACHLOROPHENOL] | 9.26 | -5 cm/s | -4.1 cm/s |  | 
CCC1(c2ccccc2)C(=O)NC(=O)NC1=O [PHENOBARBITAL] | 7.49 |  | -5.15 cm/s | -4.16 cm/s | log Kp (Homo sapiens): -6.9 cm/s
Oc1ccccc1 [PHENOL] |  |  |  |  | log Pe ([1]; not told): -4 cm/s; log Kp ([3]; not told): -4.45 cm/s; log Pe ([2]; not told): -4.53 cm/s; log Kp (Homo sapiens): -5.54 cm/s; log Pe (not told): -4.14 cm/s
CN1C(C(=O)Nc2ccccn2)=C(O)c2ccccc2S1(=O)=O [PIROXICAM] |  | -6.02 cm/s | -4.35 cm/s |  | 
CC(=O)[C@H]1CC[C@H]2[C@@H]3CCC4=CC(=O)CC[C@]4(C)[C@H]3CC[C@]12C [PROGESTERONE] |  | -5.08 cm/s |  |  | log Pe ([1]; not told): -4.63 cm/s; log Pe ([2]; not told): -4.31 cm/s; log Pe (not told): -4.56 cm/s
Oc1cccc(O)c1 [RESORCINOL] | 9.21 |  | -5.62 cm/s | -4.66 cm/s | 
O=C(O)c1ccccc1O [SALICYLIC ACID] |  |  |  |  | log Pe ([1]; not told): -3.98 cm/s; log Kp ([3]; not told): -4.7 cm/s; log Pe ([2]; not told): -4.74 cm/s; log Pe (not told): -4.16 cm/s
Cc1ccc(C(C)C)c(O)c1 [THYMOL] | 10.6 | -4.83 cm/s | -4.34 cm/s | -4.23 cm/s | log Kp [3]: -3.68 cm/s; log Pe [2]: -4.11 cm/s
